27 compounds from patent US20250195530A1, “POLQ INHIBITORS” (ASTRAZENECA AB, priority 2022, published 2025) can be followed below.

Molecules are shown by their SMILES.

For one experiment, the system named is DLD-1 BRCA2−/− cells. Put plainly: Homologous recombination synthetic lethal inhibition of proliferation, DLD-1 BRCA2-/- (Cell Titre Glo 3D). As to conditions: Homo sapiens, DLD-1, DLD-1 BRCA2-/- proliferation; column head only partly shown; read-out: POLQ PD Prolif Lumin (converted). The experiment is classed as cell-based. The method in brief: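 Proliferation of HR-deficient DLD-1 BRCA2−/− versus isogenic wild-type DLD-1 was measured by ATP luminescence (CellTiter-Glo 3D). Compound exposure lasted 12 or 7 days, respectively, with a fresh dose on day 6. IC50 was the concentration halving maximal signal.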
With `CC(CCOc1ccc(-c2nc3c(OC4(C)CC4)ncnc3n2Cc2cccc(Cl)c2F)c(Cl)c1)C(=O)O` (single isomer, unassigned) [Example T270, 4-(3-chloro-4-(9-(3-chloro-2-fluorobenzyl)-6-(1-methylcyclopropoxy)-9H-purin-8-yl)phenoxy)-2-methylbutanoic acid], the IC50 was 501 nM.

Staying with this experiment, now noted: Homo sapiens, DLD-1, DLD-1 BRCA2 −/− cells; mean; read-out: POLQ PD Prolif Lumin BRCA2 −/− mean pIC50 (converted).
`Cc1ccnc(Cn2c(-c3ccc(C(=O)NCC(F)F)cc3Cl)nc3c(OC4(C)CC4)ncnc32)c1` [Example T93, 3-chloro-N-(2,2-difluoroethyl)-4-(6-(1-methylcyclopropoxy)-9-((4-methylpyridin-2-yl)methyl)-9H-purin-8-yl)benzamide]: the IC50 was 316 nM. `Cc1ccccc1Cn1c(-c2ccc(CC(N)=O)cc2Cl)nc2c(OC3(C)CC3)ncnc21` [Example T101, 2-(3-chloro-4-(9-(2-methylbenzyl)-6-(1-methylcyclopropoxy)-9H-purin-8-yl)phenyl)acetamide]: the IC50 was 501 nM. The same measure, in the same setting: the figure for `CC1(Oc2ncnc3c2nc(-c2ccc(CC(N)=O)cc2Cl)n3Cc2ccnc(C(F)(F)F)c2)CC1` [Example T35, 2-(3-chloro-4-(6-(1-methylcyclopropoxy)-9-((2-(trifluoromethyl)pyridin-4-yl)methyl)-9H-purin-8-yl)phenyl)acetamide] is 2510 nM. Same read-out and setting: the figure for `CNC(=O)COc1ccc(-c2nc3c(OC4(C)CC4)ncnc3n2Cc2cncs2)c(Cl)c1` [Example T8, 2-(3-chloro-4-(6-(1-methylcyclopropoxy)-9-(thiazol-5-ylmethyl)-9H-purin-8-yl)phenoxy)-N-methylacetamide] is 5010 nM. On the same count and under the same terms, then `Cc1nc(Cn2c(-c3ccc(CC(N)=O)cc3Cl)nc3c(OC4(C)CC4)ncnc32)cs1` [Example T6, 2-(3-chloro-4-(6-(1-methylcyclopropoxy)-9-((2-methylthiazol-4-yl)methyl)-9H-purin-8-yl)phenyl)acetamide], with 7940 nM. Turning to `CNC(=O)COc1ccc(-c2nc3c(OC4(C)CC4)ncnc3n2Cc2ncc(C)s2)c(Cl)c1` [Example T28, 2-(3-chloro-4-(6-(1-methylcyclopropoxy)-9-((5-methylthiazol-2-yl)methyl)-9H-purin-8-yl)phenoxy)-N-methylacetamide], the IC50 is 631 nM.

In the case of `CC1(Oc2ncnc3c2nc(-c2ccc(CC(N)=O)cc2Cl)n3CCc2nccs2)CC1` [Example T7, 2-(3-chloro-4-(6-(1-methylcyclopropoxy)-9-(2-(thiazol-2-yl)ethyl)-9H-purin-8-yl)phenyl)acetamide], the IC50 was above 10000 nM.

Staying with this experiment, now noted: Homo sapiens, DLD-1, DLD-1 BRCA2 −/−, mean; read-out: POLQ PD Prolif Lumin BRCA2 −/− mean pIC50 (converted).
In the case of `CC1(Oc2ncnc3c2nc(-c2c(F)ccc(OCCC(=O)O)c2Cl)n3Cc2cccc(Cl)c2)CC1` [Example U66, 3-(2-chloro-3-(9-(3-chlorobenzyl)-6-(1-methylcyclopropoxy)-9H-purin-8-yl)-4-fluorophenoxy)propanoic acid], the IC50 was 200 nM.

Still in this experiment, the particulars now being: Homo sapiens, DLD-1, first proliferation column (c5), taken as DLD-1 BRCA2-/-; read-out: POLQ PD Prolif Lumin (converted).
Consider `Cc1ccnc(Cn2c(-c3ccc(OC[C@@H]4CNC(=O)CO4)cc3Cl)nc3c(OC4(C)CC4)ncnc32)c1` [Example T324, (S)-6-((3-chloro-4-(6-(1-methylcyclopropoxy)-9-((4-methylpyridin-2-yl)methyl)-9H-purin-8-yl)phenoxy)methyl)morpholin-3-one], for which the IC50 is 398 nM.

As for `CNC(=O)C1CN(c2ccc(-c3nc4c(OC5(C)CC5)ncnc4n3Cc3cc(C)ccn3)c(Cl)c2)C1` [Example T341, 1-(3-chloro-4-(6-(1-methylcyclopropoxy)-9-((4-methylpyridin-2-yl)methyl)-9H-purin-8-yl)phenyl)-N-methylazetidine-3-carboxamide], the IC50 was 316 nM. For the compound `CNC(=O)N1CC(Oc2ccc(-c3nc4c(OC5(C)CC5)ncnc4n3Cc3cc(C)ccn3)c(Cl)c2)C1` [Example T343, 3-(3-chloro-4-(6-(1-methylcyclopropoxy)-9-((4-methylpyridin-2-yl)methyl)-9H-purin-8-yl)phenoxy)-N-methylazetidine-1-carboxamide], the IC50 was 398 nM.

The same experiment, now with this note: Homo sapiens, DLD-1, first proliferation column (c5); DLD-1 BRCA2-/-; read-out: POLQ PD Prolif Lumin (converted).
On to `Cc1cnc(Cn2c(-c3ccc(OCCN4CC(O)C4)cc3Cl)nc3c(OC4(C)CC4)ncnc32)s1` [Example T141, 1-(2-(3-chloro-4-(6-(1-methylcyclopropoxy)-9-((5-methylthiazol-2-yl)methyl)-9H-purin-8-yl)phenoxy)ethyl)azetidin-3-ol], for which the IC50 was 501 nM.

As to `CC1(Oc2ncnc3c2nc(-c2cccc(OCCCCCCC(=O)O)c2Cl)n3Cc2cccc(Cl)c2)CC1` [Example T564, 7-(2-chloro-3-(9-(3-chlorobenzyl)-6-(1-methylcyclopropoxy)-9H-purin-8-yl)phenoxy)heptanoic acid], the IC50 is 31.6 nM. The same measure, in the same setting: then `Cc1ccnc(Cn2c(-c3ccc(O[C@H]4CCOC4)cc3Cl)nc3c(OC4(C)CC4)ncnc32)c1` [Example T196, (S)-8-(2-chloro-4-((tetrahydrofuran-3-yl)oxy)phenyl)-6-(1-methylcyclopropoxy)-9-((4-methylpyridin-2-yl)methyl)-9H-purine], with 100 nM. Consider `Cc1ccnc(Cn2c(-c3ccc(OC(C)CO)cc3Cl)nc3c(OC4(C)CC4)ncnc32)c1` (single isomer, unassigned) [Example T127, 2-(3-chloro-4-(6-(1-methylcyclopropoxy)-9-((4-methylpyridin-2-yl)methyl)-9H-purin-8-yl)phenoxy)propan-1-ol], for which the IC50 is 251 nM.

Turning to `Cc1ccnc(Cn2c(-c3ccc(C4CNC(=O)C4)cc3Cl)nc3c(OC4(C)CC4)ncnc32)c1` (single isomer, unassigned) [Example T174, 4-(3-chloro-4-(6-(1-methylcyclopropoxy)-9-((4-methylpyridin-2-yl)methyl)-9H-purin-8-yl)phenyl)pyrrolidin-2-one], the IC50 was 501 nM. On to `CNC(=O)COc1ccc(-c2nc3c(OC4(C)CC4)ncnc3n2Cc2cc(C)ccn2)c(Cl)c1` [Example T118, 2-(3-chloro-4-(6-(1-methylcyclopropoxy)-9-((4-methylpyridin-2-yl)methyl)-9H-purin-8-yl)phenoxy)-N-methylacetamide], for which the IC50 was 251 nM.

Take `CNC(=O)N1CC[C@@H](Oc2ccc(-c3nc4c(OC5(C)CC5)ncnc4n3Cc3cc(C)ccn3)c(Cl)c2)C1` [Example T501, (R)-3-(3-chloro-4-(6-(1-methylcyclopropoxy)-9-((4-methylpyridin-2-yl)methyl)-9H-purin-8-yl)phenoxy)-N-methylpyrrolidine-1-carboxamide]: the IC50 was 794 nM.

Consider `Cc1ccnc(Cn2c(-c3ccc(N4CCC5(CNC5)C4)cc3Cl)nc3c(OC4(C)CC4)ncnc32)c1` [Example T490, 8-(2-chloro-4-(2,6-diazaspiro[3.4]octan-6-yl)phenyl)-6-(1-methylcyclopropoxy)-9-((4-methylpyridin-2-yl)methyl)-9H-purine], for which the IC50 is 2000 nM. With `Cc1ccnc(Cn2c(-c3ccc(OCC(=O)N4CCC[C@H](F)C4)cc3Cl)nc3c(OC4(C)CC4)ncnc32)c1` [Example T552, (S)-2-(3-chloro-4-(6-(1-methylcyclopropoxy)-9-((4-methylpyridin-2-yl)methyl)-9H-purin-8-yl)phenoxy)-1-(3-fluoropiperidin-1-yl)ethan-1-one], the IC50 is 158 nM.

With `Cc1ccnc(Cn2c(-c3ccc(N4C[C@H]5CCN[C@H]5C4)cc3Cl)nc3c(OC4(C)CC4)ncnc32)c1` [Example T494, 8-(2-chloro-4-((3aR,6aR)-hexahydropyrrolo[3,4-b]pyrrol-5(1H)-yl)phenyl)-6-(1-methylcyclopropoxy)-9-((4-methylpyridin-2-yl)methyl)-9H-purine], the IC50 was 316 nM.

The experiment is the same for the next values; noted with them: Homo sapiens, DLD-1, first proliferation column; DLD-1 BRCA2-/-; read-out: POLQ PD Prolif Lumin (converted).
With `CC1(Oc2cccc3c2nc(-c2ccc(OCCN4CCNCC4)cc2Cl)n3Cc2cccc(Cl)c2)CCC1` [Example T611, 2-(2-chloro-4-(2-(piperazin-1-yl)ethoxy)phenyl)-1-(3-chlorobenzyl)-4-(1-methylcyclobutoxy)-1H-benzo[d]imidazole], the IC50 is 316 nM.

The experiment is the same for the next values; noted with them: Homo sapiens, DLD-1, proliferation, luminescence, taken as DLD-1 BRCA2-/-; read-out: POLQ PD Prolif Lumin (converted).
On to `Cc1ccnc(Cn2c(-c3ccc(OCCN4CC[C@@H](O)C4=O)cc3Cl)nc3c(OC4(C)CC4)ncnc32)c1` [Example T474, (R)-1-(2-(3-chloro-4-(6-(1-methylcyclopropoxy)-9-((4-methylpyridin-2-yl)methyl)-9H-purin-8-yl)phenoxy)ethyl)-3-hydroxypyrrolidin-2-one], for which the IC50 is 251 nM. Turning to `CC(CCCOc1cccc(-c2nc3c(OC4(C)CC4)ncnc3n2Cc2cccc(Cl)c2)c1Cl)C(=O)O` (single isomer, unassigned) [Example T443, 5-(2-chloro-3-(9-(3-chlorobenzyl)-6-(1-methylcyclopropoxy)-9H-purin-8-yl)phenoxy)-2-methylpentanoic acid], the IC50 was 79.4 nM.

`Cc1ccnc(Cn2c(-c3ccc(OCC(=O)N4CC[C@@H](O)C4)cc3Cl)nc3c(OC4(C)CC4)ncnc32)c1` [Example T473, (R)-2-(3-chloro-4-(6-(1-methylcyclopropoxy)-9-((4-methylpyridin-2-yl)methyl)-9H-purin-8-yl)phenoxy)-1-(3-hydroxypyrrolidin-1-yl)ethan-1-one]: the IC50 was 1000 nM.

As to `Cn1nc(COc2ccc(-c3nc4c(OC5(C)CC5)ncnc4n3Cc3cccc(Cl)c3)c(Cl)c2)cc1C(=O)O` [Example T394, 3-((3-chloro-4-(9-(3-chlorobenzyl)-6-(1-methylcyclopropoxy)-9H-purin-8-yl)phenoxy)methyl)-1-methyl-1H-pyrazole-5-carboxylic acid], the IC50 is 3160 nM.
